Test results taken from patent US6136848A, “Flavone derivative and medicine comprising the same” (Kowa Co., Ltd., priority 1996, dated 2000).
Where two headings read alike, the source gives them in different places. Each block holds one compound with its values, some of them ahead of it.

Columns and labels:
[1] = target: T1, Leucotriene D4 Receptor (Cavia porcellus, UniProt Q2NNR5); assay: Leucotriene D4 Receptor Binding Inhibition Test; parameters: species or system guinea pig
T1 construct: guinea pig pulmomembranous protein; from tissue; host or cells: guinea pig lung membranes
T1 sequence (Q2NNR5 1-340): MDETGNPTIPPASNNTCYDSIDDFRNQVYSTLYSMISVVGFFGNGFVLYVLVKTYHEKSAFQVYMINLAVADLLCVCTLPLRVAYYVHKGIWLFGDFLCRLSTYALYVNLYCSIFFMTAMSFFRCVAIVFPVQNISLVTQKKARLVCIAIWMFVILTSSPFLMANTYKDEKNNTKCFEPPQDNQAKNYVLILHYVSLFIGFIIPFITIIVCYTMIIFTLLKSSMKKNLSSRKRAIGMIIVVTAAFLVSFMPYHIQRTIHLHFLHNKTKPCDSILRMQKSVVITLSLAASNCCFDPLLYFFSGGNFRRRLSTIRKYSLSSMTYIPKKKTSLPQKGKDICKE
Procedure: An ice-cooled tris hydrochloride/sodium chloride buffer (10 mM/100 mM, pH 7.5) was added to terminate the reaction, followed by immediate filtration through a Wattman CF/C filter. The filter was washed twice with 20 ml aliquots of the ice-cooled buffer. The radioactivity of the residue was measured by a liquid scintillation counter. […] Using the Cheng-Prusoff formula, a dissociation constant (KD) was calculated from the IC50. […] Incidentally, the values in Table 2 indicate dissociation constants KD (mol).

[2] = tested on: isolated guinea pig ileum; assay: Antileucotriene D4 Action (In Vitro Test): leukotriene D4 contractile response of isolated guinea pig ileum; format: cell-based; conditions: Cavia porcellus, 0.5 h; read-out: Anti-LT action (IC50)
Procedure: Antileucotriene D4 Action (In Vitro Test)
An isolated guinea pig ileum was cut into about 2 cm lengths. Each ileum piece was suspended in a 20-ml container filled with the Krebs buffer. […] The Krebs buffer was controlled at 37° C., through which a mixed gas (95%O2 -5%CO2) was bubbled. […] After the ileum piece was washed several times with the buffer, a test compound (will be identified by its example number; this will apply likewise hereinafter) of a predetermined specific concentration was added.

[3] = tested on: airway; conditions: Larsen & Acosta 1993, cited from earlier work
[4] = 0.2 nM [3H]leukotriene D4, guinea pig pulmomembranous protein, pH 7.5, 30 min, calculated from IC50 by Cheng-Prusoff formula, read-out: LTD receptor, dissociation constant KD
[5] = read-out: LTD receptor, dissociation constant KD

Kd [1, 4]: 210 nM
Compound: Cn1c(COc2cccc(-c3cc(=O)c4cc(Br)cc(C(=O)O)c4o3)c2)nc2ccccc21 [Example 28, 6-bromo-8-carboxy-3'-[2-(1-methylbenzimidazolyl)methoxy]flavone]

Kd [1, 5]: 805 nM
Compound: O=C(O)c1cccc2c(=O)c(O)c(-c3ccc(OCc4ccc5ccccc5n4)cc3)oc12 [Example 29, 8-carboxy-3-hydroxy-4'-[(2-quinolinyl)methoxy]flavone]

IC50 [2]: 28 nM
Compound: Cc1cc(C(=O)O)c2oc(-c3cccc(/C=C/c4ccc5ccccc5n4)c3)cc(=O)c2c1 [Example 43, 8-carboxy-6-methyl-3'-[2-(2-quinolinyl)ethenyl]flavone]

Kd [1, 4]: 1130 nM
Compound: O=C(O)c1cc(Br)cc2c(=O)cc(-c3cccc(OCc4ccc5ccccc5c4)c3)oc12 [Example 26, 6-bromo-8-carboxy-3'-(2-naphthylmethoxy)flavone]

IC50 [2]: 100 nM
Compound: O=C(O)c1cc(Br)cc2c(=O)cc(-c3cccc(/C=C/c4ccc5ccccc5n4)c3)oc12 [Example 42, 8-carboxy-6-bromo-3'-[2-(2-quinolinyl)ethenyl]flavone]

Kd [1, 5]: 79.4 nM
Compound: CCOC(=O)c1cc(Br)cc2c(=O)cc(-c3cccc(OCc4nc5ccccc5s4)c3)oc12 [Example 18, 6-bromo-8-ethoxycarbonyl-3'-[(2-benzothiazolinyl)methoxy]flavone]

IC50 [2]: 15 nM
Compound: O=C(O)c1cc(Cl)cc2c(=O)cc(-c3cccc(/C=C/c4ccc5ccccc5n4)c3)oc12 [Example 41, 8-carboxy-6-chloro-3'-[2-(2-quinolinyl)ethenyl]flavone]

Kd [1, 5]: 11 nM
Compound: O=c1cc(-c2cccc(/C=C/c3ccc4ccccc4n3)c2)oc2c(-c3nn[nH]n3)cc(Cl)cc12 [Example 45, 6-chloro-3'-[2-(2-quinolinyl)ethenyl]-8-(5-tetrazolyl)flavone]

Kd [1, 5]: 17.3 nM
Compound: O=C(O)c1cccc2c(=O)cc(-c3cccc(/C=C/c4ccc5ccccc5n4)c3)oc12 [Example 39, 8-carboxy-3'-[2-(2-quinolinyl)ethenyl]flavone]

Kd [1, 5]: 9160 nM
Compound: O=C(O)c1cccc2c(=O)c(OCCN3C(=O)c4ccccc4C3=O)c(-c3ccc(OCc4ccc5ccccc5n4)cc3)oc12 [Example 31, 8-carboxy-3-(2-phthalimido)ethoxy-4'-[(2-quinolinyl)methoxy]flavone]

The remaining lines, values behind:

Compound: CCCCC/C=C\C\C=C/C=C/C=C/[C@@H](SC[C@H](N)C(=O)O)[C@@H](O)CCCC(=O)O [LTE4]
activity compared with the other leucotrienes [3]: lower activities compared with the other leucotrienes
duration of induced airway constriction [3]: long lasting

Compound: O=C(O)c1cc(Br)cc2c(=O)cc(-c3cccc(OCc4ccc5ccccc5n4)c3)oc12 [Example 23, 6-bromo-8-carboxy-3'-(2-guinolinylmethoxy)flavone]
IC50 [2]: 61 nM

Compound: CCOC(=O)c1cc(Br)cc2c(=O)cc(-c3cccc(OCc4ccc5ccc(Cl)cc5n4)c3)oc12 [Example 14, 6-bromo-8-ethoxycarbonyl-3'-[2-(7-chloroquinolinyl)methoxy]flavone]
Kd [1, 5]: 11.1 nM

Compound: [^3 H]leukotriene D4 [reference compound]
Kd ([1]; [3H]leukotriene D4, guinea pig pulmomembranous protein, read-out: dissociation constant (KD) of radioligand): 0.216 nM
Hill plot slope ([1]; [3H]leukotriene D4 binding): 0.99

Compound: CCCCC/C=C\C\C=C/C=C/C=C/[C@@H](SC[C@H](NC(=O)CC[C@H](N)C(=O)O)C(=O)NCC(=O)O)[C@@H](O)CCCC(=O)O [LTC4]
effect on airway constriction relative to histamine ([3]; inhaled, vs histamine): 1,000 times

Compound: O=c1cc(-c2cccc(/C=C/c3ccc4ccccc4n3)c2)oc2ccc(-c3nnn[nH]3)cc12 [Example 37, 3'-[2-(2-quinolinyl)ethenyl]-6-(5-tetrazolyl)flavone]
Kd [1, 4]: 307 nM

Compound: CCOC(=O)c1cc(Br)cc2c(=O)cc(-c3cccc(OCc4nc5ccccc5n4C)c3)oc12 [Example 17, 6-bromo-8-ethoxycarbonyl-3'-[2-(1-methylbenzimidazolyl)methoxy]flavone]
Kd [1, 5]: 210 nM

Compound: O=C(O)c1cc(Br)cc2c(=O)cc(-c3cccc(OCc4nc5ccccc5s4)c3)oc12 [Example 27, 6-bromo-8-carboxy-3'-(2-benzothiazolylmethoxy)flavone]
Kd [1, 4]: 79.4 nM

Compound: O=C(O)c1cc(F)cc2c(=O)cc(-c3cccc(/C=C/c4ccc5ccccc5n4)c3)oc12 [Example 40, 8-carboxy-6-fluoro-3'-[2-(2-quinolinyl)ethenyl]flavone]
Kd [1, 4]: 127 nM
